# Data: US12600709B2, “Nonpeptide somatostatin type 5 receptor agonists and uses thereof” (Crinetics Pharmaceuticals, Inc., priority 2019, dated 2026)
# Target: T1, human somatostatin receptor subtype 5 (Homo sapiens, UniProt P35346)
# T1 construct: expressed in transfected cells
# Assay: cAMP assay for SST5R (inhibition of cAMP in CHO-K1 cells)
# Type: cell-based
# Details: Table A; inhibition of cAMP via human SST5 receptor; read-out: SST5 potency
# From the text: General overview: All five SSTR subtypes are Gi coupled G-protein coupled receptors (GPCRs) that lead to decreases in intracellular cyclic AMP (cAMP) when activated by an agonist. Therefore, measurement of intracellular cAMP levels can be used to assess whether compounds of the invention are agonists of SSTR subtypes (John Kelly, Troy Stevens, W. Joseph Thompson, and Roland Seifert, Current Protocols in Pharmacology, 2005, 2.2.1-2.2). One example of an intracellular cAMP assay is described below.
# cAMP Assay Protocol for SST5R:
# Four days prior to the assay, 2,000 Chinese hamster ovary cells (CHO-K1, ATCC #CCL-61) stably expressing the human somatostatin receptor subtype 5 are plated in each well of a 96-well tissue culture-treated plate in Ham's F12 growth media (ThermoFisher #10-080-CM) supplemented with 10% donor bovine serum (Gemini Bio-Products #100-506), 100 U/mL penicillin; 100 µg/mL streptomycin; 2 mM L-glutamine (Gemini Bio-Products #400-110) and 0.25 mg/mL G418 Sulfate (GoldBio #108321-42-2). The cells are cultured at 37° C., 5% CO2 and 95% humidity. On the day of the assay, the media is aspirated and the cells are treated with 50 μL of 1.6 μM NKH477 (Sigma #N3290) plus various dilutions of compounds of the invention in assay buffer [1× Hank's Balanced Salt Solution (ThermoFisher #SH3058802), 0.5 mM HEPES pH 7.4, 0.1% bovine serum albumin, 0.2 mM 3-Isobutyl-1-methylxanthine (IBMX, VWR #200002-790)]. The cells are incubated for 20 minutes at 37° C. […] The cells are treated with 50 μL of lysis buffer (HRTF cAMP kit, Cisbio) for 30 minutes and then the lysate is diluted to 250 μL with assay buffer. The lysate is transferred to 384-well plates and cAMP detection and visualization antibodies are added and incubated for 1-24 hours at room temperature. The time-resolved fluorescent signal is read with a Tecan M1000Pro multiplate reader. The intracellular cAMP concentrations are calculated by regression to a standard curve and are plotted vs. the concentration of the compounds of the invention and the EC50 of the compounds are calculated using standard methods. All data manipulations are in GraphPad Prism v6 or v7.
# T1 sequence (P35346 whole entry): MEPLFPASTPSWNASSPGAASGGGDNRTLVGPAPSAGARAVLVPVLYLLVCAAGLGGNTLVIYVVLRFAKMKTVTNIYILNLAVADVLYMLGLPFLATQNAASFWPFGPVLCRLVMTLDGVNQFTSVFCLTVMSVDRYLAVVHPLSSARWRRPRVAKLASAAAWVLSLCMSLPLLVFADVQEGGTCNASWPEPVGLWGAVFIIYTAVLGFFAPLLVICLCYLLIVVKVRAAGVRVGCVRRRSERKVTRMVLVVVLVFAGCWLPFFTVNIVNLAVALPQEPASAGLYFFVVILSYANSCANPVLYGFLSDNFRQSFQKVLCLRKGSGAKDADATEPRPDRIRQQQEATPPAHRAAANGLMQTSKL
row,SMILES,EC50 [nM]
1,"C[C@]1(N)CCN(c2c(C(=O)NCC(F)(F)F)cncc2-c2cc(F)cc(F)c2)C1 [1-28, 4-[(3S)-3-amino-3-methylpyrrolidin-1-yl]-5-(3,5-difluorophenyl)-N-(2,2,2-trifluoroethyl)pyridine-3-carboxamide]",10 to 100
2,"CC(C)(C)NC(=O)c1cncc(-c2cc(F)cc(F)c2)c1N1CC[C@](C)(N)C1 [1-29, 4-[(3S)-3-amino-3-methylpyrrolidin-1-yl]-N-tert-butyl-5-(3,5-difluorophenyl)pyridine-3-carboxamide]",10 to 100
3,"COCC1(N)CCN(c2c(C(=O)NC34CC(C3)C4)cncc2-c2cc(F)cc(F)c2)C1 (stereo not drawn) [1-36, 4-[3-amino-3-(methoxymethyl)pyrrolidin-1-yl]-N—{bicyclo[1.1.1]pentan-1-yl}-5-(3,5-difluorophenyl)pyridine-3-carboxamide]",10 to 100
4,"N[C@@H]1CN(c2c(C(=O)NC34CC(C3)C4)cncc2-c2cc(F)cc(F)c2)C[C@H]1F [1-37, 4-[(3R,4R)-3-amino-4-fluoropyrrolidin-1-yl]-N-{bicyclo[1.1.1]pentan-1-yl}-5-(3,5-difluorophenyl)pyridine-3-carboxamide]",10 to 100
5,"CC(C)C(NC(=O)c1cncc(-c2cc(F)cc(F)c2)c1N1CC[C@](C)(N)C1)C(C)C [1-39, 4-[(3S)-3-amino-3-methylpyrrolidin-1-yl]-5-(3,5-difluorophenyl)-N-(2,4-dimethylpentan-3-yl)pyridine-3-carboxamide]",100 to 1000
6,"CC(C)(NC(=O)c1cncc(-c2cc(F)cc(F)c2)c1N1CC[C@](C)(N)C1)C1CC1 [1-40, 4-[(3S)-3-amino-3-methylpyrrolidin-1-yl]-N-(2-cyclopropylpropan-2-yl)-5-(3,5-difluorophenyl)pyridine-3-carboxamide]",10 to 100
7,"C[C@]1(N)CCN(c2c(C(=O)N[C@H]3C[C@@H](F)C3)cncc2-c2cc(F)cc(F)c2)C1 [1-59, 4-[(3S)-3-amino-3-methylpyrrolidin-1-yl]-5-(3,5-difluorophenyl)-N-[cis-3-fluorocyclobutyl]pyridine-3-carboxamide]",< 10
8,"CC(CC(F)(F)F)NC(=O)c1cncc(-c2cc(F)cc(F)c2)c1N1CC[C@](C)(N)C1 (stereo partly drawn) [1-60, 4-[(3S)-3-amino-3-methylpyrrolidin-1-yl]-5-(3,5-difluorophenyl)-N-(4,4,4-trifluorobutan-2-yl)pyridine-3-carboxamide]",< 10
9,"CC(F)(F)CNC(=O)c1cncc(-c2cc(F)cc(F)c2)c1N1CC[C@](C)(N)C1 [1-62, 4-[(3S)-3-amino-3-methylpyrrolidin-1-yl]-5-(3,5-difluorophenyl)-N-(2,2-difluoropropyl)pyridine-3-carboxamide]",< 10
10,"CC(N)C1CN(c2c(C(=O)NC34CC(C3)C4)cncc2-c2cc(F)cc(F)c2)C1 (stereo not drawn) [1-63, 4-[3-(1-aminoethyl)azetidin-1-yl]-N-{bicyclo[1.1.1]pentan-1-yl}-5-(3,5-difluorophenyl)pyridine-3-carboxamide]",10 to 100
11,"N#Cc1ncc(C(=O)NC23CC(C2)C3)c(N2CC[C@H](N)C2)c1-c1cccc(F)c1 [1-65, 4-[(3S)-3-aminopyrrolidin-1-yl]-N-{bicyclo[1.1.1]pentan-1-yl}-6-cyano-5-(3-fluorophenyl)pyridine-3-carboxamide]",< 10
12,"C[C@]1(N)CCN(c2cc(C#N)ncc2C(=O)NC23CC(C2)C3)C1 [1-75, 4-[(3S)-3-amino-3-methylpyrrolidin-1-yl]-N-{bicyclo[1.1.1]pentan-1-yl}-6-cyanopyridine-3-carboxamide]",100 to 1000
13,"N#Cc1ncc(C(=O)N2CCCCC2)c(N2CC[C@H](N)C2)c1-c1cc(F)cc(F)c1 [1-80, 4-[(3S)-3-aminopyrrolidin-1-yl]-3-(3,5-difluorophenyl)-5-(piperidine-1-carbonyl)pyridine-2-carbonitrile]",100 to 1000
14,"N#Cc1ncc(C(=O)NC2CCCC2)c(N2CC[C@H](N)C2)c1-c1cc(F)cc(F)c1 [1-82, 4-[(3S)-3-aminopyrrolidin-1-yl]-6-cyano-N-cyclopentyl-5-(3,5-difluorophenyl)pyridine-3-carboxamide]",< 10
15,"N#Cc1ncc(C(=O)NC23CC(C2)C3)c(N2CC[C@H](N)C2)c1-c1cccc(Cl)c1 [1-84, 4-[(3S)-3-aminopyrrolidin-1-yl]-N-{bicyclo[1.1.1]pentan-1-yl}-5-(3-chlorophenyl)-6-cyanopyridine-3-carboxamide]",< 10
16,"C[C@]1(N)CCN(c2c(C(=O)NC3CCOCC3)cnc(C#N)c2-c2cc(F)cc(F)c2)C1 [1-88, 4-[(3S)-3-amino-3-methylpyrrolidin-1-yl]-6-cyano-5-(3,5-difluorophenyl)-N-(oxan-4-yl)pyridine-3-carboxamide]",< 10
17,"C[C@]1(N)CCN(c2c(C(=O)NC3CCCOC3)cnc(C#N)c2-c2cc(F)cc(F)c2)C1 (stereo partly drawn) [1-89, 4-[(3S)-3-amino-3-methylpyrrolidin-1-yl]-6-cyano-5-(3,5-difluorophenyl)-N-(oxan-3-yl)pyridine-3-carboxamide]",< 10

# The remaining lines, values ahead:
row,EC50 [nM],SMILES
1,< 10,"Cc1cc(F)cc(-c2cncc(C(=O)NCC3CC3)c2N2CC[C@](C)(N)C2)c1 [1-26, 4-[(3S)-3-amino-3-methylpyrrolidin-1-yl]-N-(cyclopropylmethyl)-5-(3-fluoro-5-methylphenyl)pyridine-3-carboxamide]"
2,< 10,"Cc1cc(F)cc(-c2cncc(C(=O)Nc3ccn(C)n3)c2N2CC[C@](C)(N)C2)c1 [1-27, 4-[(3S)-3-amino-3-methylpyrrolidin-1-yl]-5-(3-fluoro-5-methylphenyl)-N-(1-methyl-1H-pyrazol-3-yl)pyridine-3-carboxamide]"
3,< 10,"CC1(CNC(=O)c2cncc(-c3cc(F)cc(F)c3)c2N2CC[C@](C)(N)C2)CC1 [1-32, 4-[(3S)-3-amino-3-methylpyrrolidin-1-yl]-5-(3,5-difluorophenyl)-N-[(1-methylcyclopropyl)methyl]pyridine-3-carboxamide]"
4,< 10,"C[C@]1(N)CCN(c2c(C(=O)NCC3CCC3)cncc2-c2cc(F)cc(F)c2)C1 [1-33, 4-[(3S)-3-amino-3-methylpyrrolidin-1-yl]-N-(cyclobutylmethyl)-5-(3,5-difluorophenyl)pyridine-3-carboxamide]"
5,< 10,"CC(C)C(C)NC(=O)c1cncc(-c2cc(F)cc(F)c2)c1N1CC[C@](C)(N)C1 (stereo partly drawn) [1-38, 4-[(3S)-3-amino-3-methylpyrrolidin-1-yl]-5-(3,5-difluorophenyl)-N-(3-methylbutan-2-yl)pyridine-3-carboxamide]"
6,< 10,"C[C@]1(N)CCN(c2c(C(=O)NCC3CC3(F)F)cncc2-c2cc(F)cc(F)c2)C1 (stereo partly drawn) [1-42, 4-[(3S)-3-amino-3-methylpyrrolidin-1-yl]-N-[(2,2-difluorocyclopropyl)methyl]-5-(3,5-difluorophenyl)pyridine-3-carboxamide]"
7,< 10,"CC1(C)CC1CNC(=O)c1cncc(-c2cc(F)cc(F)c2)c1N1CC[C@](C)(N)C1 (stereo partly drawn) [1-43, 4-[(3S)-3-amino-3-methylpyrrolidin-1-yl]-5-(3,5-difluorophenyl)-N-[(2,2-dimethylcyclopropyl)methyl]pyridine-3-carboxamide]"
8,< 10,"CC(C)C(NC(=O)c1cncc(-c2cc(F)cc(F)c2)c1N1CC[C@](C)(N)C1)C(F)(F)F (stereo partly drawn) [1-45, 4-[(3S)-3-amino-3-methylpyrrolidin-1-yl]-5-(3,5-difluorophenyl)-N-(1,1,1-trifluoro-3-methylbutan-2-yl)pyridine-3-carboxamide]"
9,< 10,"CC(C)CNC(=O)c1cncc(-c2cc(F)cc(F)c2)c1N1CC[C@](C)(N)C1 [1-46, 4-[(3S)-3-amino-3-methylpyrrolidin-1-yl]-5-(3,5-difluorophenyl)-N-(2-methylpropyl)pyridine-3-carboxamide]"
10,< 10,"C[C@]1(N)CCN(c2c(C(=O)NCC3CC(F)(F)C3)cncc2-c2cc(F)cc(F)c2)C1 [1-50, 4-[(3S)-3-amino-3-methylpyrrolidin-1-yl]-N-[(3,3-difluorocyclobutyl)methyl]-5-(3,5-difluorophenyl)pyridine-3-carboxamide]"
11,< 10,"C[C@@H](NC(=O)c1cncc(-c2cc(F)cc(F)c2)c1N1CC[C@](C)(N)C1)C(F)(F)F [1-53, 4-[(3S)-3-amino-3-methylpyrrolidin-1-yl]-5-(3,5-difluorophenyl)-N-[(2R)-1,1,1-trifluoropropan-2-yl]pyridine-3-carboxamide]"
12,< 10,C[C@]1(N)CCN(c2c(C(=O)N[C@H]3C[C@H](F)C3)cncc2-c2cc(F)cc(F)c2)C1 [1-55]
13,< 10,"C[C@]1(N)CCN(c2c(C(=O)NC(C3CCC3)C(F)(F)F)cncc2-c2cc(F)cc(F)c2)C1 (stereo partly drawn) [1-56, 4-[(3S)-3-amino-3-methylpyrrolidin-1-yl]-N-(1-cyclobutyl-2,2,2-trifluoroethyl)-5-(3,5-difluorophenyl)pyridine-3-carboxamide]"
